Data taken from patent US9108950B2, “1-pyrazolyl-3-(4-((2-anilinopyrimidin-4-yl)oxy)napththalen-1-yl) ureas as p38 MAP kinase inhibitors” (Respivert Ltd., priority 2011, dated 2015).

Legend:
[1] = Physical stability on storage (TGA, XRPD, IR, DSC, appearance); assay type: physicochemical; set-up: key to XRD / IR: Cryst.: crystalline; ~Ref: pattern identical with reference sample; conditions: for Appearance / IR / XRD / DSC max / TGA <100° C. weight loss / TGA <180° C. weight loss: form B micronized
Experimental: Patterns were obtained on a PANalytical (Philips) X'PertPRO MPD diffractometer equipped with a Cu LFF X-ray tube (45 kV; 40 mA; Bragg-Brentano; spinner stage) and were acquired using Cu Kα radiation under the following measurement conditions: scan mode: continuous; scan range: 3 to 50° 2θ; step size: 0.02°/step; counting time: 30 sec/step; spinner revolution time: 1 sec; incident beam path: program. divergence slit: 15 mm; Soller slit: 0.04 rad; beam mask: 15 mm; anti scatter slit: 1°; beam knife: +; Diffracted beam path: long anti scatter shield: +; Soller slit: 0.04 rad; Ni filter: +; detector: X'Celerator. Samples were prepared by spreading on a zero background sample holder.
Micro attenuated total reflectance (microATR) was used and the sample was analyzed using a suitable microATR accessory and the following measurement conditions: apparatus: Thermo Nexus 670 FTIR spectrometer; number of scans: 32; resolution: 1 cm^−1; wavelength range: 4000 to 400 cm^−1; detector: DTGS with KBr windows; beamsplitter: Ge on KBr; micro ATR accessory: Harrick Split Pea with Si crystal.
Data were collected on a TA-Instruments Q1000 MTDSC equipped with RCS cooling unit. Typically 3 mg of each compound, in a standard aluminium TA-Instrument sample pan, was heated at 10° C./min from 25 C to 300° C. A nitrogen purge at 50 mL/min was maintained over the sample.
Data were collected on a TA-Instruments Q500 thermogravimeter Typically 10 mg of each sample was transferred into a pre-weighed aluminium pan and was heated at 20° C./min from ambient temperature to 300° C. or […] unless otherwise stated.
Thermal analysis of Compound (I) as the anhydrous free base in crystalline polymorphic form B (micronized) was undertaken using TGA, DVS, XRPD analysis, IR spectroscopy and DSC as described in General Procedures. Where appropriate, a sample at ambient temperature and relative humidity (reference sample/“0 days”) was compared with samples stored at various temperatures and relative humidities (comparative samples).
The reference sample (t=0) and the comparative samples that were exposed prior to analysis to different storage conditions, were heated at a rate of 20° C./min from RT to 300° C. The TGA curve of the reference sample (t=0) is illustrated in FIG. 3 and the results for all samples are summarised below (Table 8). […] The weight loss that occurred above 180° C. was due to evaporation and decomposition of the product. Comparing this weight loss profile with those of the comparative samples in Table 8, no significant differences were observed.
The XPRD diffraction pattern of the reference sample (t=0) is illustrated in FIG. 2 and the IR trace is illustrated in FIG. 6. The diffraction pattern and IR trace were compared with those of the comparative samples (exposed to different storage conditions) and the results are summarised in Table 8. The diffraction patterns and IR traces were identical for all samples.
The reference sample (t=0) and comparative samples, previously exposed to different storage conditions, were heated at a rate of 10° C./min from 25° C. to 300° C. The DSC curve of the reference sample is illustrated in FIG. 7 and the results for all samples are summarised below (Table 8). From FIG. 7, it is evident that the reference sample melted with decomposition at 214.0° C.

[2] = system: BEAS2B cells; experiment: Poly I:C-induced ICAM-1 expression in BEAS2B cells; assay type: cell-based; conditions: Homo sapiens, BEAS-2B, read-out: PolyIC/ICAM1 IC50 (BEAS2B)
Experimental: Poly I:C was used in these studies as a simple, RNA virus mimic. Poly I:C-Oligofectamine mixture (1 μg/mL Poly I:C, ±2% Oligofectamine, 25 μL; Invivogen Ltd., San Diego, Calif., and Invitrogen, Carlsbad, Calif., respectively) was transfected into BEAS2B cells (human bronchial epithelial cells, ATCC). Cells were pre-incubated with final concentrations of test compounds for 2 hr and the level of ICAM-1 expression on the cell surface was determined by cell-based ELISA. […]
The cells were washed with PBS-Tween (3×200 μL) and incubated with the secondary antibody (100 μL; HRP-conjugated anti-rabbit IgG, Dako Ltd., Glostrup, Denmark). […] The ICAM-1 signal was detected by reading […] the absorbance at 450 nm against a reference wavelength of 655 nm using a spectrophotometer. The cells were then washed with PBS-Tween (3×200 μL) and total cell numbers in each well were determined by reading absorbance at 595 nm after Crystal Violet staining (50 μL of a 2% solution in PBS) and elution by 1% SDS solution (100 μL) in distilled water. The measured OD 450-655 readings were corrected for cell number by dividing with the OD595 reading in each well. The inhibition of ICAM-1 expression was calculated at each concentration of test compound by comparison with vehicle control.

Cc1ccc(-n2nc(C(C)(C)C)cc2NC(=O)Nc2ccc(Oc3ccnc(Nc4ccccc4)n3)c3ccccc23)cc1 [Compound (I), 1-(3-(tert-Butyl)-1-(p-tolyl)-1H-pyrazol-5-yl)-3-(4-((2-(phenylamino)pyrimidin-4-yl)oxy)naphthalen-1-yl)urea]
physical stability ([1]; form B): good physical stability | Appearance ([1]; 1 week/70° C./75% RH): off-white | IR ([1]; 1 week/70° C./75% RH): ~Ref | XRD ([1]; 1 week/70° C./75% RH): ~Ref | Appearance ([1]; 1 week/80° C.): off-white | IR ([1]; 1 week/80° C.): ~Ref | XRD ([1]; 1 week/80° C.): ~Ref | Appearance ([1]; 4 weeks/40° C./75% RH): off-white | DSC max ([1]; 4 weeks/40° C./75% RH): 214 °C | IR ([1]; 4 weeks/40° C./75% RH): ~Ref | TGA <100° C. weight loss ([1]; 4 weeks/40° C./75% RH): 0.8% | TGA <180° C. weight loss ([1]; 4 weeks/40° C./75% RH): 0.3% | XRD ([1]; 4 weeks/40° C./75% RH): ~Ref | Appearance ([1]; 4 weeks/50° C.): off-white | DSC max ([1]; 4 weeks/50° C.): 214 °C | IR ([1]; 4 weeks/50° C.): ~Ref | TGA <100° C. weight loss ([1]; 4 weeks/50° C.): 1.3% | TGA <180° C. weight loss ([1]; 4 weeks/50° C.): 0.5% | XRD ([1]; 4 weeks/50° C.): ~Ref | Appearance ([1]; 4 weeks/RT/56% RH): off-white | DSC max ([1]; 4 weeks/RT/56% RH): 214 °C | IR ([1]; 4 weeks/RT/56% RH): ~Ref | TGA <100° C. weight loss ([1]; 4 weeks/RT/56% RH): 0.5% | TGA <180° C. weight loss ([1]; 4 weeks/RT/56% RH): 0.4% | XRD ([1]; 4 weeks/RT/56% RH): ~Ref | Appearance ([1]; 4 weeks/RT/75% RH): off-white | DSC max ([1]; 4 weeks/RT/75% RH): 214 °C | IR ([1]; 4 weeks/RT/75% RH): ~Ref | TGA <100° C. weight loss ([1]; 4 weeks/RT/75% RH): 0.9% | TGA <180° C. weight loss ([1]; 4 weeks/RT/75% RH): 0.5% | XRD ([1]; 4 weeks/RT/75% RH): ~Ref | Appearance ([1]; 4 weeks/RT/<5% RH): off-white | DSC max ([1]; 4 weeks/RT/<5% RH): 214 °C | IR ([1]; 4 weeks/RT/<5% RH): ~Ref | TGA <100° C. weight loss ([1]; 4 weeks/RT/<5% RH): 0.8% | TGA <180° C. weight loss ([1]; 4 weeks/RT/<5% RH): 0.5% | XRD ([1]; 4 weeks/RT/<5% RH): ~Ref | Appearance ([1]; T = zero): off-white | DSC max ([1]; T = zero): 214 °C | IR ([1]; T = zero): Cryst. | TGA <180° C. weight loss ([1]; T = zero): 0.6% | XRD ([1]; T = zero): Cryst. | IC50 [2]: 10.2 nM
